Experimental findings from patent US11739077B2, “Small molecule inhibitors of ubiquitin specific protease 1 (USP1) and uses thereof” (Insilico Medicine IP Limited, priority 2021, dated 2023) are described below.

Assay [1] concerns the target Human recombinant USP1/UAF1 (Homo sapiens (Human), UniProt O94782). Kind of assay: Enzymatic assay, USP1/UAF1 with Ubiquitin Rhodamine 110. The following applies: 2 nM USP1/UAF1, 500 nM Ubiquitin Rhodamine 110, 15 minutes preincubation at RT. The format is biochemical. Here is the method: Human recombinant USP1/UAF1 expressed in baculovirus infected Sf21 cells were used (R&D, E-568-050). Test compound and/or vehicle was incubated with 2 nM of USP1/UAF1 in modified HEPES buffer pH 8.0 for 15 minutes at RT. The reaction was initiated by addition of 500 nM of Ubiquitin Rhodamine 110 (R&D, U-555-050) for kinetic reading. Slope change of fluorescence intensity was read spectrofluorimetrically at 485 nm/535 nm.

The test system of assay [2] is MDA-MB-436 cells. Kind of assay: MDA-MB-436 breast cancer cell proliferation assay (CellTiter-Glo). The format is cell-based. The following applies: Homo sapiens, 168 h, 7 days. Here is the method: MDA-MB-436 cells were grown in Leibovitz's L-15 medium with 10 ug/ml insulin, 16 ug/ml glutathione, 10% FBS. Cells were passaged at subconfluence after trypsinization and maintained in incubators at 37° C. in a humidified atmosphere with 5% CO2.
Cell proliferation was determined using CellTiter-Glo® Luminescent Cell Viability Assay (Promega, #G7573). MDA-MB-436 cells were seeded in 384-well plates and allowed to attach for 24 h. Compounds were added into 384-well plate by ECHO, and incubated at 37° C. in a humidified atmosphere with 5% CO2. After 7 days, CellTiter-Glo was added into 384 well plates, contents were mixed on an orbital shaker at […] for 2 min before centrifuging the plate for 2 min at 1000 rpm. After incubation at RT for 30 min, luminescence was read on envision.
A general note: ATP-based viability assays read luminescence as a measure of living cells.

pIC50: −log10 of the molar value.

For orientation: pIC50 means the IC50 on a negative log10 scale, so that one unit is a factor of ten.

Human recombinant USP1/UAF1, sequence (O94782 whole entry): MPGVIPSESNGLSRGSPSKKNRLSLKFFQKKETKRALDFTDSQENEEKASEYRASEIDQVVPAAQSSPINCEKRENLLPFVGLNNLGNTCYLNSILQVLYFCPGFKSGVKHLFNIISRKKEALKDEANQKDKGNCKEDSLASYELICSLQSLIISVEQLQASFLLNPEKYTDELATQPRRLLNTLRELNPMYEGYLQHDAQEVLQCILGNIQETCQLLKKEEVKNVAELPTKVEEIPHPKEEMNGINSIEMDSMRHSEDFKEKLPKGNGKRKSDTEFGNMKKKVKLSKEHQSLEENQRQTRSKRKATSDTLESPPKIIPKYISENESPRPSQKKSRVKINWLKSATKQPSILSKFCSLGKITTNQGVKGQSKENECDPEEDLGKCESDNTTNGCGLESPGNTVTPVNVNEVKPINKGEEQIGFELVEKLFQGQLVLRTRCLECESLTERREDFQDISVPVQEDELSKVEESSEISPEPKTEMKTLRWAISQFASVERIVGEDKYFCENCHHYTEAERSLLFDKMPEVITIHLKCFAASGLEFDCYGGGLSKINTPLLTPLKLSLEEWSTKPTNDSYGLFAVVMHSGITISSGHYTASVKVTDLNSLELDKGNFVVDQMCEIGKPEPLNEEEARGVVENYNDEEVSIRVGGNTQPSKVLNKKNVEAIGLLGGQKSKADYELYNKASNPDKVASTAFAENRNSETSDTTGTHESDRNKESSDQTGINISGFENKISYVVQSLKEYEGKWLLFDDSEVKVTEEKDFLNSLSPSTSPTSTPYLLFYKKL
Human recombinant USP1/UAF1, sequence (Q8TAF3 whole entry partner): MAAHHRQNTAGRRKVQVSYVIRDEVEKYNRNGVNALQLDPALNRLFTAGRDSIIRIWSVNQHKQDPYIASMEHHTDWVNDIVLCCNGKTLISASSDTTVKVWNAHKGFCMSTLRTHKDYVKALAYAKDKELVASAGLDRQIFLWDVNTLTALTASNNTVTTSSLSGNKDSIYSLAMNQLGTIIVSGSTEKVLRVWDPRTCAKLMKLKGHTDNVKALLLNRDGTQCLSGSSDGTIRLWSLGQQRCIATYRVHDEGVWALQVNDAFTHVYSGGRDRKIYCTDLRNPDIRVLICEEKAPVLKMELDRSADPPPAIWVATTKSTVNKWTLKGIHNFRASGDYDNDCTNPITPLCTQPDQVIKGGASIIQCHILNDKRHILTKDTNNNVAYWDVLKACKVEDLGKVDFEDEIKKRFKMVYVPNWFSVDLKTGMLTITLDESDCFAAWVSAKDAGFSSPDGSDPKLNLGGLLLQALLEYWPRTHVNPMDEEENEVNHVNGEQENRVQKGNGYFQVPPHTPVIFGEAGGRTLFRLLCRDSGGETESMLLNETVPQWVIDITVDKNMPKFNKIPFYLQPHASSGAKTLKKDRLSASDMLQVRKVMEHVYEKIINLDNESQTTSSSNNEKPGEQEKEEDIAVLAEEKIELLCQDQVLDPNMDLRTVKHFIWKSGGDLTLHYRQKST

As for `COc1ncnc(C2CC2)c1-c1nn(C)c2c1CN(c1ncc(-c3nc(C(F)(F)F)cn3C)cn1)CC2` [Example 27, 3-(4-cyclopropyl-6-methoxypyrimidin-5-yl)-1-methyl-5-(5-(1-methyl-4-(trifluoromethyl)-1H-imidazol-2-yl)pyrimidin-2-yl)-4,5,6,7-tetrahydro-1H-pyrazolo[4,3-c]pyridine], the pIC50 in assay [1] and in assay [2] was more than 7.30 throughout.

On to `COc1ncnc(C2CC2)c1-c1nn(C)c2c1CN(c1cnc(-c3nc(C(F)(F)F)cn3C)cn1)CC2` [Example 28, 3-(4-cyclopropyl-6-methoxypyrimidin-5-yl)-1-methyl-5-(5-(1-methyl-4-(trifluoromethyl)-1H-imidazol-2-yl)pyrazin-2-yl)-4,5,6,7-tetrahydro-1H-pyrazolo[4,3-c]pyridine], for which the pIC50 in assay [1] and in assay [2] was more than 7.30 throughout.

Take `COc1ncnc(C2CC2)c1-c1nn(C)c2c1CN(c1ccc(-c3nc(C(F)(F)F)cn3C)nn1)CC2` [Example 29, 3-(4-cyclopropyl-6-methoxypyrimidin-5-yl)-1-methyl-5-(6-(1-methyl-4-(trifluoromethyl)-1H-imidazol-2-yl)pyridazin-3-yl)-4,5,6,7-tetrahydro-1H-pyrazolo[4,3-c]pyridine]: the negative logarithm of the IC50 (pIC50) in assay [1] and in assay [2] was 6.00 to 7.30 throughout.

For the compound `[2H]C([2H])([2H])n1nc(-c2c(OC)ncnc2C2CC2)c2c1CCN(c1ccc(-c3nc(C(F)(F)F)cn3C)c(F)c1)C2` [Example 30, 3-(4-cyclopropyl-6-methoxypyrimidin-5-yl)-5-(3-fluoro-4-(1-methyl-4-(trifluoromethyl)-1H-imidazol-2-yl)phenyl)-1-(methyl-d3)-4,5,6,7-tetrahydro-1H-pyrazolo[4,3-c]pyridine], the pIC50 in assay [1] and in assay [2] was more than 7.30 throughout.

Take `COc1ncnc(C2CC2)c1-c1nn(C(F)F)c2c1CN(c1ccc(-c3nc(C(F)(F)F)cn3C)cn1)CC2` [Example 31, 3-(4-cyclopropyl-6-methoxypyrimidin-5-yl)-1-(difluoromethyl)-5-(5-(1-methyl-4-(trifluoromethyl)-1H-imidazol-2-yl)pyridin-2-yl)-4,5,6,7-tetrahydro-1H-pyrazolo[4,3-c]pyridine]: the figures for the pIC50 in assay [1] and in assay [2] were more than 7.30 and 6.00 to 7.30, respectively.

Regarding `COc1ncnc(C2CC2)c1-c1nn(C(F)F)c2c1CN(c1ccc(-c3nc(C(F)(F)F)cn3C(C)C)cn1)CC2` [Example 32, 3-(4-cyclopropyl-6-methoxypyrimidin-5-yl)-1-(difluoromethyl)-5-(5-(1-isopropyl-4-(trifluoromethyl)-1H-imidazol-2-yl)pyridin-2-yl)-4,5,6,7-tetrahydro-1H-pyrazolo[4,3-c]pyridine], the pIC50 in assay [1] was more than 7.30; in assay [2] it was 6.00 to 7.30.
